Common to all, as to format: functional, organism-based
The subject of test [1] is Staphylococcus aureus. Put plainly: Antibacterial activity against Staphylococcus aureus ATCC 29213 assessed as bacterial growth inhibition and measured every 20 mins for 16 hrs.
Test [2] concerns Klebsiella pneumoniae. Put plainly: Antibacterial activity against Klebsiella pneumoniae ATCC 10031 assessed as bacterial growth inhibition and measured every 20 mins for 16 hrs.
Test [3] has as its system Acinetobacter baumannii. Put plainly: Antibacterial activity against Acinetobacter baumannii ATCC 17978 assessed as bacterial growth inhibition and measured every 20 mins for 16 hrs.

The text below walks through data of ChEMBL document CHEMBL4665903, “Novel Tricyclic Compounds for Treating Bacterial Infection” (ACS Med Chem Lett, 2020).

Molecules are shown by their SMILES.

For `CCNc1cc(F)cc2c1[nH]c1ncc(-c3cncc(C#N)c3)c(N3CC[C@@]4(C[C@H]4N)C3)c12`, the IC50 in test [1] is 863 nM; in test [2], less than 98 nM; in test [3], less than 98 nM.
Regarding `CCNc1cc(F)cc2c1[nH]c1ncc(-c3cncc(C#N)c3)c(N3CCC(F)(CN)C3)c12` (stereo not drawn), the IC50 in test [1] was 312 nM; in test [2] it was less than 98 nM; in test [3], less than 98 nM.
For `CNc1cc(F)c(F)c2c1[nH]c1ncc(-c3cnc4ccnn4c3)c(N3CC[C@H]4CN(C)C[C@H]43)c12`, the IC50 in test [1] is 369 nM; in test [2], less than 98 nM; in test [3], less than 98 nM.
Regarding `CNc1cc(F)c(F)c2c1[nH]c1ncc(-c3cncc(C#N)c3)c(N3CCCC(F)(CN)C3)c12` (stereo not drawn), the results for the IC50 in test [1], in test [2] and in test [3] were 477 nM, less than 98 nM and less than 98 nM, respectively.
`CNc1cc(F)c(F)c2c1[nH]c1ncc(-c3cnc(OC)nc3)c(N3CC[C@@]4(C[C@@H]4N)C3)c12`: the IC50 in test [1] was 184 nM; in test [2], less than 98 nM; in test [3], less than 98 nM.
Regarding `CCNc1cc(F)c(F)c2c1[nH]c1ncc(-c3cnc(OC)nc3)c(N3CCC[C@@H](CN)C3)c12`, the IC50 was 394 nM in test [1], less than 98 nM in test [2] and less than 98 nM in test [3].
